In PubChem BioAssay AID1963827 (Molecular Pharmacology Branch, DTP, NCI, 2024):
pIC50: −log10 of the molar value.

Tested on: 994946-033-R-J1-PDC complex spheroid viability
Assay: Anticancer human tumor 994946-033-R-J1-PDC patient-derived melanoma cell line growth inhibition [POLQ]
Settings: for pIC50: curve of first compound; for viability, T/C: stronger effect = lower value
Protocol: Multicellular complex tumor spheroid response to Polymerase (POL) inhibitors (novobiocin, ART-558, RP6685) in combination with a variety of drugs and investigational agents in selected tumor cell lines
The POL inhibitors (novobiocin, ART-558, and RP6685) were evaluated both individually and in combination with standard of care and investigational anticancer small molecules within a complex spheroid model of solid tumors. . Complex spheroids include a stromal component modeled by human endothelial cells (HUVEC) and fibroblasts modeled by human mesenchymal stem cells (MSCs). The concentration ranges selected for each drug and investigational agent were based upon clinically achievable concentrations if the clinical Cmax of the agent was known.
Compounds. The drugs and investigational agents: novobiocin (NSC847541), ART-558 (NSC835418), RP-6685 (NSC848927), peposertib (NSC802822), ceralasertib (NSC780249), elimusertib (NSC800525), camonsertib (NSC841442), AZD-1390 (NSC803789), olaparib (NSC753686), talazoparib (NSC767125), rucaparib (NSC756644), sotorasib (NSC818433), MRTX-1133 (NSC836407), SN-38 (NSC673596), topotecan (NSC609699), epotoside (NSC141540), doxorubicin (NSC123127), gemcitabine (NSC613327), 5-fluorouracil (NSC19893), paclitaxel (NSC125973), vemurafenib (NSC761431), MSA-2 (NSC828583), SN-011 (NSC837082), adavosertib (NSC754352), prexasertib (NSC758257), carboplatin (NSC241240) and oxaliplatin (NSC266046), were obtained from the National Cancer Institute (NCI) Developmental Therapeutics Program Chemical Repository (21). The FDA-approved anticancer drug set is available from the Developmental Therapeutics Program at https://dtp.cancer.gov/organization/dscb/obtaining/. […] The stock solutions were prepared in dimethyl sulfoxide (DMSO, Sigma-Aldrich, St. Louis, MO, cat. D2650), except for the platinum compounds which were prepared in saline (Quality Biological, Gaithersburg, MD, cat. 114-055-101), at 800-fold the tested concentration and stored at -70 degrees C prior to their use. All drugs and investigational agents were tested over a range starting from a high concentration at or near the clinical Cmax and decreasing in half-log increments. If the clinical Cmax for an agent had not been determined, the highest concentration tested was 10 microM, except for SN-38, which was tested at a high concentration of 1 microM.
Cell Culture. All cells were maintained in an incubator at 37 degrees C and 5% CO2 with 95% humidity. The PDC lines were cultured according to standard operating procedures established by the NCI PDMR (https://pdmr.cancer.gov). Table 3 of the manuscript, lists the cell lines along with the number of the three cell types plated to form the mct-spheroids and media for tumor cell growth. After thawing, all PDC lines, except 997537-175-T-J1-PDC and 415267-285-R-J2-PDC, were cultured in Matrigel-coated flasks prepared with a working solution of 1X Ham's F-12 nutrient mix, without supplementation (Thermo Fisher Scientific, cat. 11765054), 100 U/mL penicillin-streptomycin (Thermo Fisher Scientific, cat. 15140122), and 2.5% Matrigel (Corning Inc., Corning, NY, cat. 354248) for the first three passages. The two PDC lines 997537-175-T-J1-PDC and 415267-285-R-J2-PDC were cultured on uncoated flasks. The 857933-349-R-J2-PDC line was cultured in 6C/Colon 1B media containing advanced DMEM/F-12 (Thermo Fisher Scientific, cat. 12634028), 10 mM HEPES (Thermo Fisher Scientific, cat. 15630080), 1X GlutaMAX supplement (Thermo Fisher Scientific, cat. 35050061), 0.1 mg/mL primocin (InvivoGen, San Diego, CA, cat. ant-pm-2), 10% defined fetal bovine serum, heat inactivated (HyClone Laboratories Inc., Logan, UT, cat. SH30070.03HI), 50% L-WRN conditioned media (ATCC, cat. CRL-3276), 1.25 mM N-Acetyl-L-cysteine (Sigma-Aldrich, cat. A9165), 10 mM nicotinamide (Sigma-Aldrich, cat. N0636), 1X B-27 supplement (Thermo Fisher Scientific, cat. 17504044), 1X N-2 supplement (Thermo Fisher Scientific, cat. […]

[1] = second compound 0.0316 µM, first compound 0.0316 µM
[2] = second compound 0.0316 µM, first compound 0.1 µM
[3] = second compound 0.0316 µM, first compound 0.316 µM
[4] = second compound 0.0316 µM, first compound 1 µM
[5] = second compound 0.0316 µM, first compound 3.16 µM
[6] = second compound 0.0316 µM, first compound 10 µM
[7] = second compound 0.1 µM, first compound 0.0316 µM
[8] = second compound 0.1 µM, first compound 0.1 µM
[9] = second compound 0.1 µM, first compound 0.316 µM
[10] = second compound 0.1 µM, first compound 1 µM
[11] = second compound 0.1 µM, first compound 3.16 µM
[12] = second compound 0.1 µM, first compound 10 µM
[13] = second compound 0.316 µM, first compound 0.0316 µM
[14] = second compound 0.316 µM, first compound 0.1 µM
[15] = second compound 0.316 µM, first compound 0.316 µM
[16] = second compound 0.316 µM, first compound 1 µM
[17] = second compound 0.316 µM, first compound 3.16 µM
[18] = second compound 0.316 µM, first compound 10 µM
[19] = second compound 1 µM, first compound 0.0316 µM
[20] = second compound 1 µM, first compound 0.1 µM
[21] = second compound 1 µM, first compound 0.316 µM
[22] = second compound 1 µM, first compound 1 µM
[23] = second compound 1 µM, first compound 3.16 µM
[24] = second compound 1 µM, first compound 10 µM
[25] = second compound 3.16 µM, first compound 0.0316 µM
[26] = second compound 3.16 µM, first compound 0.1 µM
[27] = second compound 3.16 µM, first compound 0.316 µM
[28] = second compound 3.16 µM, first compound 1 µM
[29] = second compound 3.16 µM, first compound 3.16 µM
[30] = second compound 3.16 µM, first compound 10 µM
[31] = second compound 10 µM, first compound 0.0316 µM
[32] = second compound 10 µM, first compound 0.1 µM
[33] = second compound 10 µM, first compound 0.316 µM
[34] = second compound 10 µM, first compound 1 µM
[35] = second compound 10 µM, first compound 3.16 µM
[36] = second compound 10 µM, first compound 10 µM
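Also: spheroids exposed to drugs for 7 days.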
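For viability, T/C in this document: 100% = DMSO vehicle treated spheroids.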

Compound `CC1COCCN1c1cc(-c2ccnn2C)c2ccnc(-c3ccn[nH]3)c2n1` (centres undefined) + Cc1cccc(N(C)C(=O)C2C(O)CCN2c2nc(C)cc(C(F)(F)F)c2C#N)c1 has a pIC50 (second compound 0.0316 µM) of 7.22, a pIC50 (second compound 0.1 µM) of 7.27 and a pIC50 (second compound 0.316 µM) of 7.29. The pIC50 (second compound 1 µM) was 7.24, the pIC50 (second compound 3.16 µM) was greater than 7.50 and the pIC50 (second compound 10 µM) was 7.05. The viability, T/C [1] was 77.7%, the viability, T/C [2] was 27.9% and the viability, T/C [3] was 13%. The viability, T/C [4] was 24.4%, the viability, T/C [5] was 16.6% and the viability, T/C [6] was 8.57%. For the same compound, the viability, T/C [7] was 69.1%, the viability, T/C [8] was 28.4% and the viability, T/C [9] was 14.2%. The viability, T/C [10] was 31.3%, the viability, T/C [11] was 15.1% and the viability, T/C [12] was 7.78%. It also gave a viability, T/C [13] of 72.5%, a viability, T/C [14] of 18.6% and a viability, T/C [15] of 25.1%. For the same compound, the viability, T/C [16] was 12.4%, the viability, T/C [17] was 15.7% and the viability, T/C [18] was 7.71%. For the same compound, the viability, T/C [19] was 63.4%, the viability, T/C [20] was 33.9% and the viability, T/C [21] was 29.9%. For the same compound, the viability, T/C [22] was 16%, the viability, T/C [23] was 13.6% and the viability, T/C [24] was 7.27%. For the same compound, the viability, T/C [25] was 49%, the viability, T/C [26] was 35.3% and the viability, T/C [27] was 18.5%. The viability, T/C [28] was 12.7%, the viability, T/C [29] was 11% and the viability, T/C [30] was 6.95%. For the same compound, the viability, T/C [31] was 81.8%, the viability, T/C [32] was 42% and the viability, T/C [33] was 30.7%. It also gave a viability, T/C [34] of 21.6%, a viability, T/C [35] of 15.3% and a viability, T/C [36] of 8.65%.

With `CCc1cc2c(N3CCc4c(cc(Cn5ccnc5)cc4-c4cn(C)nc4C(F)(F)F)C3=O)ccnc2c(OC)n1` + COC1C(OC(N)=O)C(O)C(Oc2ccc3c(O)c(NC(=O)c4ccc(O)c(CC=C(C)C)c4)c(=O)oc3c2C)OC1(C)C the pIC50 (second compound 0.0316 µM) was less than 5.00, the pIC50 (second compound 0.1 µM) was less than 5.00 and the pIC50 (second compound 0.316 µM) was less than 5.00. For the same compound, the pIC50 (second compound 1 µM) was less than 5.00, the pIC50 (second compound 3.16 µM) was less than 5.00 and the pIC50 (second compound 10 µM) was less than 5.00. It also gave a viability, T/C [1] of 98.9%, a viability, T/C [2] of 72.2% and a viability, T/C [3] of 61.1%. The viability, T/C [4] was 73.3%, the viability, T/C [5] was 63.3% and the viability, T/C [6] was 70%. It also gave a viability, T/C [7] of 92.7%, a viability, T/C [8] of 77.8% and a viability, T/C [9] of 96.2%. For the same compound, the viability, T/C [10] was 78.8%, the viability, T/C [11] was 61.2% and the viability, T/C [12] was 81.2%. For the same compound, the viability, T/C [13] was 100%, the viability, T/C [14] was 98.3% and the viability, T/C [15] was 70.6%. It also gave a viability, T/C [16] of 66.1%, a viability, T/C [17] of 86.4% and a viability, T/C [18] of 63.7%. For the same compound, the viability, T/C [19] was 91.6%, the viability, T/C [20] was 75.7% and the viability, T/C [21] was 94.1%. For the same compound, the viability, T/C [22] was 85.3%, the viability, T/C [23] was 68.1% and the viability, T/C [24] was 69%. The viability, T/C [25] was 91.9%, the viability, T/C [26] was 77.3% and the viability, T/C [27] was 81.7%. For the same compound, the viability, T/C [28] was 73.8%, the viability, T/C [29] was 74.3% and the viability, T/C [30] was 54%. For the same compound, the viability, T/C [31] was 91.7%, the viability, T/C [32] was 77.6% and the viability, T/C [33] was 67.1%. It also gave a viability, T/C [34] of 81.2%, a viability, T/C [35] of 64.3% and a viability, T/C [36] of 58.9%.
